Assays:
[1] = tested on: Flk1-eGFP osteoblasts (mouse osteoblast line MC3T3); experiment: High throughput screen for eGFP expression in Flk1-eGFP osteoblasts; type: cell-based; settings: after 14 days of treatment
Source text: A high throughput screen was generated by modifying the mouse osteoblast line MC3T3. Fetal liver kinase 1 (Flk1) promoter-driven enhanced green fluorescent protein (eGFP) was introduced into these osteoblasts. […] Several libraries of small molecules, including a FDA-approved drug library, a UCLA in-house collection, and a custom set of compounds were screened. These libraries contained more than 22,000 small molecules ranging from natural products to synthesized compounds. […] It was further determined the specificity of endothelial differentiation by closely examining other vascular lineage markers including smooth muscle cells (SMCs), pericytes, and fibroblasts by using real-time PCR. […] Because GSK3 is important in glucose metabolism, the expression of genes related to glucose metabolism was determined in the SB216763-treated osteoblasts, such as casein kinase 2, glucose transporter 4, and insulin receptor substrates 1 and 2.
MC3T3 cells were stably infected with Flk1 promoter-driven eGFP by using Flk1-eGFP lentivirus (GeneCopoeia™). […] The plates were transferred and delivered by a Thermo Scientific™ Spinnaker™ Robot (ThermoFisher Scientific). eGFP expression was determined and imaged using a FlexStation II and Victor 3V (Perkin Elmer) every day for two weeks.

[2] = tested on: ectopic bone formation; experiment: Ectopic bone formation in vivo after transplantation of treated cells; parameters: species or system mouse
Procedure: To assess the functional capacity of SB216763-treated osteoblasts, they were treated with osteogenic induction media in vitro. […] A transplantation experiment was then performed to examine the capacity for bone formation using a well-established bone formation assay in vivo. This assay was adapted and eGFP positive cells were used, which were isolated from SB216763-treated Flk1-eGFP osteoblasts (FIG. 2, Part A).
The cells were then subjected to osteogenic induction media. […] Cells was transplanted into nude mice to test ectopic bone formation.
(§1) MicroCT imaging was performed at the Crump Imaging Center at UCLA. All the samples were scanned on a high-resolution, volumetric microCT scanner (CT125). The image data were acquired with the following parameters: 10 μm isotropic voxel resolution; 200 ms exposure time; 2,000 views and 5 frames per view. The microCT-generated DICOM files were used to analyze the samples and to create volume renderings of the regions of interest. The raw data files were viewed using the MicroView 3-D volume viewer and analysis tool (GE Healthcare) and AltaViewer™ Software. Additionally, images of the samples were generated using SCIRun (Scientific Computing and Imaging Institute).
All the surgeries were performed on a heated pad with a connection to a continuous flow of isoflurane. Ectopic bone formation was performed as previously described: 5×10^5 cells were mixed with 40 mg hydroxyapatite/tricalcium phosphate power (SALVIN™, ORASTRUCT-0.5 CC) and incubated in a 1 ml syringe at 37° C. in 5% CO2 overnight. After disinfection with 70% ethanol, a skin incision was made on the back of mouse. A subcutaneous pouch was formed by blunt dissection. The mixture of cells and hydroxyapatite/tricalcium phosphate was transplanted into the pouch and the incision was closed. The implants were examined by microCT imaging and histology 12 weeks after transplantation.

[3] = tested on: promoter region of Smad1 gene; experiment: ChIP assay of β-catenin DNA-binding and histone modification in promoter of Smad1 gene; type: cell-based, mouse
Source text: The expression of transcription factors that are known to be involved in bone formation or vascular development were screened. […] To determine if excess β-catenin affected SMAD1 expression, β-catenin in SB216763-treated osteoblasts was depleted by using siRNA. […] DNA-binding sites of β-catenin by locating the binding motifs in Smad1 gene was explored, and identified four individual sites located at −196 bp, −1454 bp, −2805 bp and −4729 bp upstream of exon1 of Smad1 gene (FIG. 3, Part D). […] Then, transcriptional status of Smad1 was determined by examining the histone modification, including trimethylated histone H3 lysine 4 (H3K4me3) associated with active transcription and H3K27me3 a closed chromatin mark.
βChIP assays were performed as previously described. Specific antibodies for β-catenin were used (R&D System, MAB2006), H3k4me3 (Abcam, ab8580) and H3k27me3 (Abcam, ab6002). The primers for the real-time PCR: 5′GAAAATAACACAGGCTTTG3′ (SEQ ID NO: 13) and 5′ GCTCCCCGAGCCTGGATT 3′ (SEQ ID NO: 14); 5′ GGACAGAGGCTCTCATTCC 3′ (SEQ ID NO: 15) and 5′[…]3′ (SEQ ID NO: 16) and 5′[…]3′ (SEQ ID NO: 17) 5′[…]3′ (SEQ ID NO: 18); 5′[…]3′ (SEQ ID NO: 19) and 5′[…]3′ (SEQ ID NO: 20).

[4] = tested on: bone tissue of wild type mice; experiment: Effect of long treatment on bone formation in wild type mice; type: in vivo, mouse; settings: wild type mice at 8 weeks of age, 5 ug/g daily for 8 weeks
Procedure: To determine if long-treatment of SB216763 has any effects on bone formation, wild type mice were treated at 8 weeks of age with SB216763 (5 ug/g daily) for 8 weeks. After treatment, the bone tissue was examined by micro-CT imaging and immunostaining.
as §1

Cn1cc(C2=C(c3ccc(Cl)cc3Cl)C(=O)NC2=O)c2ccccc21 [SB216763]
cell morphology [1]: converted osteoblasts into EC-like morphology | eGFP expression [1]: strongly activated eGFP expression | osteocytes in implants, histology and immunostaining ([2]; SB216763-treated cells with SMAD1 overexpression or knockdown of β-catenin): presence of osteocytes | osteocytes in implants, histology and immunostaining ([2]; implants with eGFP positive cells from treated osteoblasts): lack of osteocytes | ectopic bone by microCT ([2]; implants with eGFP positive cells from treated osteoblasts vs osteoblast controls): smaller size of ectopic bone, less trabecular formation and less bone volume | histone modification H3K4me3 and H3K27me3 around β-catenin binding sites in Smad1 promoter ([3]; treated osteoblasts): lower abundance of H3K4me3 with higher abundance H3K27me3 | β-catenin abundance around binding sites upstream of exon1 of Smad1 gene ([3]; treated osteoblasts vs non-treated controls): more abundance of β-catenin | hemorrhage in the bone tissue [4]: had not detected any hemorrhage | microstructure of bone tissues and vasculature, immunostaining of CD31 and osterix [4]: no changes in the microstructure of bone tissues and vasculature | relative bone volumes and connectivity densities, micro-CT ([4]; treated vs non-treated): no differences
